Source: PMC10657792, “Downstream Allosteric Modulation of NMDA Receptors by 3-Benzazepine Derivatives” (Molecular Neurobiology, 2023)
Several values for one entry are separate records, joined by “and”; a condition that tells them apart may be missing. Equal entries are not always repeated.

Key:
Format in all cases: cell-based
[1] = target: GluN1a wt/ GluN2B N192A/F194A (Rattus norvegicus, UniProt P35439+Q00960, F194A/N192A); test: TEVC recording in X. laevis oocytes, GluN2B mutant screening
[2] = target: T1, GluN1a wt/ GluN2B wt (Rattus norvegicus, UniProt P35439+Q00960); test: TEVC recording of NMDAR currents in X. laevis oocytes, inhibition by compound
Method: (§1) The NMDAR was expressed in stage V and VI oocytes originated from X. laevis. Oocytes were provided by Ecocyte Bioscience (Dortmund, Germany), and equimolar amounts of wild-type and mutated GluN1 and GluN2B cRNA were injected (0.8 ng each). The oocytes were incubated in Barth’s solution, containing (mmol l^−1): 88 NaCl, 1 KCl, 0.4 CaCl2, 0.33 Ca(NO3)2, 0.6 MgSO4, 5 TRIS–HCl, 2.4 NaHCO3, supplemented with 80 mg l^−1 theophylline, 63 mg l^−1 benzylpenicillin, 40 mg l^−1 streptomycin, and 100 mg l^−1 gentamycin and maintained at 18 °C until usage. After injection, the oocytes were incubated for 5 days at 18 °C. Subsequently, the activity of the expressed NMDARs in the oocytes was recorded by two-electrode voltage clamp (TEVC).
(§2) The compounds were retrieved as 10 mM stock solutions in DMSO and were subsequently diluted with agonist solution and adjusted to 0.1% DMSO concentration. Inhibition of each compound was measured via TEVC in X. laevis oocytes at room temperature using a Turbo Tec 10CX amplifier (NPI electronic, Tamm, Germany), NI USB 6221 DA/AD Interface (National Instruments, Austin, USA), and GePulse Software (Dr. Michael Pusch, Genova, Italy). Ba^2+-Ringer, consisting of 10 mM HEPES, 90 mM NaCl, 1 mM KCl, and 1.5 mM BaCl2, adjusted to pH 7.4, was used for TEVC measurements. Agonist solution containing 10 µM glycine and 10 µM (S)-glutamate was prepared in Ba^2+-Ringer, and the measurements were performed at a holding potential of − 70 mV, using electrodes with a glass capillary filled with 3 M KCl and a resistance between 0.5 and 1.5 MΩ. The compounds were tested by applying ascending concentrations, ranging from 1 to 30,000 nM, in at least six oocytes. Example traces for all recorded conditions can be found in Supplementary Figs. S2–S9.
(§3) TEVC data were analyzed using Ana (Dr. Michael Pusch, Genova, Italy), and statistics were performed using OriginPro 2020 (OriginLab Corporation, Northampton, USA). The inhibitory effect of each compound is calculated using the following equation: inhibition=1-Ic-Ih/Ia-Ih where Ih describes the current in the absence of agonists; Ia represents the steady-state current in the presence of the agonists; and Ic is defined as the steady-state after binding of agonist and compound. All dose response curves are fitted to the following logistic equation: y=A1-A2/1+x/x0^p+A2 where A1 describes the minimal inhibition of a compound and was set to 0; A2 represents the maximal inhibition of a compound; p is the slope of the curve; x0 is defined as the concentration at half-maximal inhibition; and x is the tested concentration. Data were statistically analyzed by one-way ANOVA and Tukey post-hoc mean comparison test in OriginPro 2020 (OriginLab Corporation, Northampton, USA). p values are indicated by * for p < 0.05, ** for p < 0.01, and *** for p < 0.001.

[3] = target: T2, GluN1b wt/ GluN2B wt (Rattus norvegicus, UniProt P35439+Q00960); test: as above
Method: as §1, §2, §3

[4] = system: GluN1b wt/ GluN2B wt; test: as above; settings: X. laevis oocytes; higher for GluN1-1b
Method: as §1, §2, §3

[5] = target: T1, GluN1a wt/ GluN2B wt; test: TEVC recording in X. laevis oocytes in the presence of agonists and 200 µM spermine; settings: agonists + 200 µM spermine; fitted curve
Method: as §1
as §2, with “The compounds were tested by applying ascending concentrations, ranging from 1 to 30,000 nM, in at least six oocytes.” left out
as §3, with “All dose response curves are fitted to the following logistic equation: y=A1-A2/1+x/x0^p+A2 where A1 describes the minimal inhibition of a compound and was set to 0; A2 represents the maximal inhibition of a compound; p is the slope of the curve; x0 is defined as the concentration at half-maximal inhibition; and x is the tested concentration.” left out
(§4) The NMDAR is probably modulated by polyamines such as spermine and spermidine in a similar way to exon 5 [22]. As described above, we recorded GluN1-1a/GluN2B and GluN1-1b/GluN2B expressing oocytes with 200 µM spermine and ascending concentrations of (R)-OF-NB1, to examine if the allosteric effects are mechanically in conjunction or can be potentiated. […]

[6] = target: T2, GluN1b wt/ GluN2B wt; test: as above; settings: agonists + 200 µM spermine; fitted curve
Method: as §1
as §2, with “The compounds were tested by applying ascending concentrations, ranging from 1 to 30,000 nM, in at least six oocytes.” left out
as §3, with “All dose response curves are fitted to the following logistic equation: y=A1-A2/1+x/x0^p+A2 where A1 describes the minimal inhibition of a compound and was set to 0; A2 represents the maximal inhibition of a compound; p is the slope of the curve; x0 is defined as the concentration at half-maximal inhibition; and x is the tested concentration.” left out
as §4

[7] = target: GluN1a wt/ GluN2B Q110A (Rattus norvegicus, UniProt P35439+Q00960, Q110A); test: TEVC recording in X. laevis oocytes, GluN2B mutant screening; settings: fitted curve
[8] = oocytes, 10 µM glycine + 10 µM (S)-glutamate, -70 mV, fitted curve

T1 sequence (Q00960 27-1482, other chains not shown): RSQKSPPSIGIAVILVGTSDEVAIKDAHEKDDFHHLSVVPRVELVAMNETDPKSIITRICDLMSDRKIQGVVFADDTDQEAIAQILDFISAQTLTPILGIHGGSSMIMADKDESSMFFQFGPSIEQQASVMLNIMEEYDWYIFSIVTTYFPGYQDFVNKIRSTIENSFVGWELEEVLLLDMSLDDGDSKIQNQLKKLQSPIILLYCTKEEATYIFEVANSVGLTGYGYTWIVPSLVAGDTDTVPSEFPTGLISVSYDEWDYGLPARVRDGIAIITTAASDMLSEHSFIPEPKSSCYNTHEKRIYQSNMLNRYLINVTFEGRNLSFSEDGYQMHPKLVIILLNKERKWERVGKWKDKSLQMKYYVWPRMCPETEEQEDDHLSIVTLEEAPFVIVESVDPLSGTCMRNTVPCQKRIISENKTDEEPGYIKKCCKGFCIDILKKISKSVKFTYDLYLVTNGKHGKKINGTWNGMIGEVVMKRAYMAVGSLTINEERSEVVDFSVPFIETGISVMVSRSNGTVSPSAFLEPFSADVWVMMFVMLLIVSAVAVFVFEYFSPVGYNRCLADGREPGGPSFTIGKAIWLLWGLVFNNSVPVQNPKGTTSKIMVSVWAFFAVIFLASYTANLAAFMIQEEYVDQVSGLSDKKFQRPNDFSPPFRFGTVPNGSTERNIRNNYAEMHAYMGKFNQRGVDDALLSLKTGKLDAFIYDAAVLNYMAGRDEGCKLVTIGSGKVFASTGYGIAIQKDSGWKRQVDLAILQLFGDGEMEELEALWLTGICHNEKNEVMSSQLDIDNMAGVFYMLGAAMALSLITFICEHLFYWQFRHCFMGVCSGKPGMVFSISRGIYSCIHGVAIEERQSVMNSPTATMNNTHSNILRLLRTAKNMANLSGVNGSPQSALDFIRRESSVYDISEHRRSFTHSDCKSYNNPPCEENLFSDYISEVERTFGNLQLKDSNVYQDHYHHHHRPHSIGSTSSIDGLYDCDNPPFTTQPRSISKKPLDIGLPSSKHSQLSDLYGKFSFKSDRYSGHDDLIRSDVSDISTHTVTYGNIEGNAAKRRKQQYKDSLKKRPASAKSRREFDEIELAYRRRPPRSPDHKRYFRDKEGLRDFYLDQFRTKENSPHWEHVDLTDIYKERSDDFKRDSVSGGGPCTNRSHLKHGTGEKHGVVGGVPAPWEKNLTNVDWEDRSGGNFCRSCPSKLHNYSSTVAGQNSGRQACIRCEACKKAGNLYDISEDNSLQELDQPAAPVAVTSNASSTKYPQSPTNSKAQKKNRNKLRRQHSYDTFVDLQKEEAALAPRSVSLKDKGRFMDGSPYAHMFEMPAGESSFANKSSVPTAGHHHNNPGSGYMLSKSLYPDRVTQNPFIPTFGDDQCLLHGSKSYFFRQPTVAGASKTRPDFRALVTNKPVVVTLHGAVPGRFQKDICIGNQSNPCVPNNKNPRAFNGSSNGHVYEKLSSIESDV
T2 sequence (Q00960 27-1482, other chains not shown): as above
GluN1a wt/ GluN2B N192A/F194A, sequence (Q00960 27-1482 N192A/F194A, other chains not shown): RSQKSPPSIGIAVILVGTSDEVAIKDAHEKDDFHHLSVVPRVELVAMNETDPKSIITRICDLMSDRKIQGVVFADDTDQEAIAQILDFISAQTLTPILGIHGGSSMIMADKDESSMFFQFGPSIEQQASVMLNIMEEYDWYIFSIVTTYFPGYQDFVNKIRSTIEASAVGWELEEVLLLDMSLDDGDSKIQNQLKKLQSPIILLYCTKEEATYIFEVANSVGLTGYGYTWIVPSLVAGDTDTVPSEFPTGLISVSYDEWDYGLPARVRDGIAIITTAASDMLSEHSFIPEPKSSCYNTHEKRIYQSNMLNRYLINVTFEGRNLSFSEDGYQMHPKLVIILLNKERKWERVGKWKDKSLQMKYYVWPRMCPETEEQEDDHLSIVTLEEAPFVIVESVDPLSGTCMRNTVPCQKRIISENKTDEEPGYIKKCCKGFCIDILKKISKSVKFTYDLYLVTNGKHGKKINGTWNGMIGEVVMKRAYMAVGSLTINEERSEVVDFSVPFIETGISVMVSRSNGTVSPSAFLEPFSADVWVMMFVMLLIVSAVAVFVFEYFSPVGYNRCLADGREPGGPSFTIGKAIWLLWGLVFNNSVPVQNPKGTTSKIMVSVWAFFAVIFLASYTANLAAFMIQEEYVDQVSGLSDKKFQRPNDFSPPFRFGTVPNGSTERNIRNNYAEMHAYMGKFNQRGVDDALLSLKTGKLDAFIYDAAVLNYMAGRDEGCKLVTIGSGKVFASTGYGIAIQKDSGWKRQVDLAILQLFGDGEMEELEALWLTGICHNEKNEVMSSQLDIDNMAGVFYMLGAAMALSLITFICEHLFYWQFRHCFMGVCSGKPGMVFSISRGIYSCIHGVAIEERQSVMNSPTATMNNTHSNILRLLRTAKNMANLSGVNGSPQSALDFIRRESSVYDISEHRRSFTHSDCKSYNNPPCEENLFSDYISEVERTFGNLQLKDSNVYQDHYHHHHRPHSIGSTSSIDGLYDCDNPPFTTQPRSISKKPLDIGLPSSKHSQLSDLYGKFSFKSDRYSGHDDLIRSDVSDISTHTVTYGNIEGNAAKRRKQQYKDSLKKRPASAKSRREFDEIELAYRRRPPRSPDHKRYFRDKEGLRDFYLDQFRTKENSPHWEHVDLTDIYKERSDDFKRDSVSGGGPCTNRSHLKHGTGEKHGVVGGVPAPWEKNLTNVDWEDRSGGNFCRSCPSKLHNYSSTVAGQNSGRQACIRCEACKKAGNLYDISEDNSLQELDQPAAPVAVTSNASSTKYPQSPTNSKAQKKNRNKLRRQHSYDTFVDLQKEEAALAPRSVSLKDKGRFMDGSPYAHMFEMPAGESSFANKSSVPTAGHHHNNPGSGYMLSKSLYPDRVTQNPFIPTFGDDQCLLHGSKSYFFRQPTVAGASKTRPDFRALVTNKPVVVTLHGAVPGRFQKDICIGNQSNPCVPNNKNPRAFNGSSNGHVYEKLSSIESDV

## Oc1ccc2c(c1)CCN(CCCCc1ccccc1F)C[C@@H]2O [(R)-OF-NB1]
[1]; GluN1-1a GluN2B N192A/F194A, compound concentration 1 μM, single oocytes
  inhibition at 1 µM: 30.7%
[1]; GluN1-1a GluN2B N192A/F194A, compound concentration 1 μM, single oocytes, 1 µM
  inhibition (%): 27.3896% and 29.45% and 20.653%
[1]; GluN1-1a GluN2B N192A/F194A, compound concentration 10 μM, single oocytes, 10 µM
  inhibition (%): 48.3548% and 37.2275% and 43.7739% and 28.318%
[1]; GluN1-1a GluN2B N192A/F194A, compound concentration 30 μM, single oocytes
  inhibition at 30 µM: 50.8%
[1]; GluN1-1a GluN2B N192A/F194A, compound concentration 30 μM, single oocytes, 30 µM
  inhibition (%): 42.6495% and 45.6455% and 35.2023%
[1]; fitted curve
  Hill coefficient: 0.3
[2]; GluN1-1a/ GluN2B, compound concentration 10 μM, single oocytes
  inhibition at 10 µM: 88.1%
[2]; GluN1-1a/ GluN2B, compound concentration 30 μM, single oocytes
  inhibition at 30 µM: 91.8%
[2]; TEVC example traces
  antagonist concentration at which oocytes were already inhibited: 0.001 µM
[2]; fitted curve
  Hill coefficient: 0.9
[2]; [8]
  IC50: 97 nM
[3]; GluN1-1b, compound 10 nM, single oocyte, 0.01 µM
  inhibition (%): -3.681% and 0.325% and 2.192% and 0.884% and -0.428% and 3.985% and 0.078% and 0.089%
[3]; GluN1-1b, compound 1000 nM, single oocyte
  inhibition at 1 µM: 72.1%
[3]; GluN1-1b, compound 10000 nM, single oocyte
  inhibition at 10 µM: 82.7%
[3]; GluN1-1b, compound 30000 nM, single oocyte
  inhibition at 30 µM: 84.9%
[3]; GluN1-1b/ GluN2B, compound concentration 0.001 μM, single oocytes, 0.001 µM
  inhibition (%): 0.0934% and -0.03337% and 1.1426% and -0.02965% and -0.02382% and 0.3791% and 0.2758%
[3]; GluN1-1b/ GluN2B, compound concentration 0.01 μM, single oocytes, 0.01 µM
  inhibition (%): -0.2599% and -0.1168% and -0.1502% and 0.03902% and 1.645% and -0.1483% and 0.439% and 0.2911%
[3]; GluN1-1b/ GluN2B, compound concentration 30 μM, single oocytes
  inhibition at 30 µM: 86.1%
[3]; TEVC example traces
  antagonist concentration at which oocytes were inhibited: ~ 1 µM
[3]; fitted curve
  A2 (level of maximal inhibition): 84.8%
  Hill coefficient: 6.2
[3]; [8]
  IC50: 675 nM
[4]
  IC50 of splice variant containing exon 5 (GluN1-1b) relative to IC50 of GluN1-1a: sevenfold
[5]
  Hill coefficient: 1.4
  IC50: 359 nM
[6]
  Hill coefficient: 1.8
  IC50: 522 nM
[7]; agonists 10 µM glycine + 10 µM (S)-glutamate
  IC50: 210 nM
[7]
  Hill coefficient: 5.4
